Assay results from ChEMBL document CHEMBL4382229, “Benzofuran derivatives and their anti-tubercular, anti-bacterial activities” (Eur J Med Chem, 2019).
Values after ≈ are worked out from the molar mass of the structure shown.

Assays:
Staphylococcus aureus [1] = assay: Antibacterial activity against Staphylococcus aureus assessed as diameter of inhibition zone at 250 ug/ml after 24 hrs by disc diffusion method; assay type: functional; details: read-out: DIZ
Escherichia coli [2] = assay: Antibacterial activity against Escherichia coli assessed as diameter of inhibition zone at 250 ug/ml after 24 hrs by disc diffusion method; assay type: functional; details: read-out: DIZ
[3] = tested on: Mycobacterium tuberculosis; assay: Antimycobacterial activity against Mycobacterium tuberculosis H37Rv ATCC 27294 after 5 days by microplate alamar blue assay; assay type: functional; details: H37Rv ATCC 27294, 120 h
Bacillus subtilis [4] = assay: Antibacterial activity against Bacillus subtilis MTCC 1134 after 24 hrs by broth dilution method; assay type: functional; details: MTCC 1134, 24 h
Escherichia coli [5] = assay: Antibacterial activity against Escherichia coli MTCC 1559 after 24 hrs by broth dilution method; assay type: functional; details: MTCC 1559, 24 h
Pseudomonas aeruginosa [6] = assay: Antibacterial activity against Pseudomonas aeruginosa MTCC 1034 after 24 hrs by broth dilution method; assay type: functional; details: MTCC 1034, 24 h
[7] = target: DNA gyrase subunit A/DNA gyrase subunit B (Mycobacterium tuberculosis (strain ATCC 25618 / H37Rv), UniProt P9WG45+P9WG47); assay: Inhibition of Mycobacterium tuberculosis H37Rv DNA gyrase A/B expressed in Escherichia coli assessed as reduction in supercoiling of relaxed pBR322 DNA substrate measured after 60 mins by ethidium bromide staining based agarose gel electrophoresis method
Chain of DNA gyrase subunit A/DNA gyrase subunit B (P9WG45 whole entry, the tested form may be a part): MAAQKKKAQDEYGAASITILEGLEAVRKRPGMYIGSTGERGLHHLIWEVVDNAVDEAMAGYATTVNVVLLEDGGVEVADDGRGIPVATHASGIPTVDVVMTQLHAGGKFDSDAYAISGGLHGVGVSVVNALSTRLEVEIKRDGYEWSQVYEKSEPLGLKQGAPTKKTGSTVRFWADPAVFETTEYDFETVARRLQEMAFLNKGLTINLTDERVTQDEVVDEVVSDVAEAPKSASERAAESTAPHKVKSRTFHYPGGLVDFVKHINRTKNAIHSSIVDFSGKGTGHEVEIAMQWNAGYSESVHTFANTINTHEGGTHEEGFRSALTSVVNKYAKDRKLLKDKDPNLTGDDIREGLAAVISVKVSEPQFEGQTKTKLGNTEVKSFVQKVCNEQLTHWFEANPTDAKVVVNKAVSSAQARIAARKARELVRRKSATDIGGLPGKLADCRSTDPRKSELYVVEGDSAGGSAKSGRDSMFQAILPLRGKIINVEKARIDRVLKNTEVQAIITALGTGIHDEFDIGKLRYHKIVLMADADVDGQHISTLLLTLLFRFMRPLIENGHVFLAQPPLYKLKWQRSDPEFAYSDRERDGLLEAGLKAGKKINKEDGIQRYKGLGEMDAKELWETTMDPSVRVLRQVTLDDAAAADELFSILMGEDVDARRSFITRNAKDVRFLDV
Chain of DNA gyrase subunit A/DNA gyrase subunit B (P9WG47 whole entry, the tested form may be a part): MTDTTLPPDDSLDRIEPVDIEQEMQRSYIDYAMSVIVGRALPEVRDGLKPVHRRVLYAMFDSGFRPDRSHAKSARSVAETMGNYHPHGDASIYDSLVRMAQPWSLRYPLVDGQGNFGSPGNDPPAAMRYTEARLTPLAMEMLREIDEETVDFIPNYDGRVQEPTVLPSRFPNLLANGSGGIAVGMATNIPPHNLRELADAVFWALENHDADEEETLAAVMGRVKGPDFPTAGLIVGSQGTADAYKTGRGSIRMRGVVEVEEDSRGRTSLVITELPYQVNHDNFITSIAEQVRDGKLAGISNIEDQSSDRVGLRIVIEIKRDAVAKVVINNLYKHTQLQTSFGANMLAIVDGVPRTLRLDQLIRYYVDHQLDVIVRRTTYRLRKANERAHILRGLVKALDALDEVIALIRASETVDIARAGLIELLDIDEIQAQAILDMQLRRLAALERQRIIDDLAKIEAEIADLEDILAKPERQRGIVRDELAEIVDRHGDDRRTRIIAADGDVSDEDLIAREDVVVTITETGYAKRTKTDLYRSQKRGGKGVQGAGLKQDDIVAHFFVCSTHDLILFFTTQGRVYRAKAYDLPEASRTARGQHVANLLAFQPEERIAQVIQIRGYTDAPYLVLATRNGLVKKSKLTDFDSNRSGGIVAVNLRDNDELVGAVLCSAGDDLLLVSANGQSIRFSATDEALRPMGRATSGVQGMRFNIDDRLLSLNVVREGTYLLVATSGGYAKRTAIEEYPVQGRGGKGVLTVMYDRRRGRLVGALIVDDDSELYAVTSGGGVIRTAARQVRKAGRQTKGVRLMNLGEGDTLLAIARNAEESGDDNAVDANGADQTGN

Staphylococcus aureus [8] = assay: Antibacterial activity against Staphylococcus aureus MTCC 96 assessed as zone of inhibition at 25 ug/ml by agar well diffusion method; assay type: functional; details: read-out: IZ
Streptococcus pyogenes [9] = assay: Antibacterial activity against Streptococcus pyogenes MTCC 442 assessed as zone of inhibition at 25 ug/ml by agar well diffusion method; assay type: functional; details: read-out: IZ
Escherichia coli [10] = assay: Antibacterial activity against Escherichia coli MTCC 443 assessed as zone of inhibition at 25 ug/ml by agar well diffusion method; assay type: functional; details: read-out: IZ
Pseudomonas aeruginosa [11] = assay: Antibacterial activity against Pseudomonas aeruginosa MTCC 424 assessed as zone of inhibition at 25 ug/ml by agar well diffusion method; assay type: functional; details: read-out: IZ
Staphylococcus aureus [12] = assay: Antibacterial activity against Staphylococcus aureus MTCC 96 assessed as zone of inhibition at 100 ug/ml by disc diffusion method; assay type: functional; details: read-out: IZ
Streptococcus pyogenes [13] = assay: Antibacterial activity against Streptococcus pyogenes MTCC 442 assessed as zone of inhibition at 100 ug/ml by disc diffusion method; assay type: functional; details: read-out: IZ
Escherichia coli [14] = assay: Antibacterial activity against Escherichia coli MTCC 443 assessed as zone of inhibition at 100 ug/ml by disc diffusion method; assay type: functional; details: read-out: IZ
Pseudomonas aeruginosa [15] = assay: Antibacterial activity against Pseudomonas aeruginosa MTCC 424 assessed as zone of inhibition at 100 ug/ml by disc diffusion method; assay type: functional; details: read-out: IZ
Bacillus spizizenii [16] = assay: Antibacterial activity against Bacillus subtilis ATCC 6633 after 24 hrs by broth dilution method; assay type: functional; details: ATCC 6633, 24 h
Staphylococcus aureus [17] = assay: Antibacterial activity against Staphylococcus aureus ATCC 29213 after 24 hrs by broth dilution method; assay type: functional; details: ATCC 29213, 24 h
Escherichia coli [18] = assay: Antibacterial activity against Escherichia coli ATCC 11229 after 24 hrs by broth dilution method; assay type: functional; details: ATCC 11229, 24 h
Proteus vulgaris [19] = assay: Antibacterial activity against Proteus vulgaris […] after 24 hrs by broth dilution method; assay type: functional
Staphylococcus aureus [20] = assay: Antibacterial activity against Staphylococcus aureus assessed as zone of inhibition at 50 ug/ml after 3 days by filter paper disc method; assay type: functional; details: 72 h, read-out: IZ
Bacillus subtilis [21] = assay: Antibacterial activity against Bacillus subtilis assessed as zone of inhibition at 50 ug/ml after 3 days by filter paper disc method; assay type: functional; details: 72 h, read-out: IZ
Escherichia coli [22] = assay: Antibacterial activity against Escherichia coli assessed as zone of inhibition at 50 ug/ml after 3 days by filter paper disc method; assay type: functional; details: 72 h, read-out: IZ
Pseudomonas aeruginosa [23] = assay: Antibacterial activity against Pseudomonas aeruginosa assessed as zone of inhibition at 50 ug/ml after 3 days by filter paper disc method; assay type: functional; details: 72 h, read-out: IZ
Proteus vulgaris [24] = assay: Antibacterial activity against Proteus vulgaris after 24 hrs; assay type: functional
Staphylococcus aureus [25] = assay: Antibacterial activity against Staphylococcus aureus assessed as zone of inhibition at 1 mg/ml after 32 hrs by agar-well diffusion method; assay type: functional; details: read-out: IZ
Klebsiella pneumoniae = assay: Antibacterial activity against Klebsiella pneumoniae assessed as zone of inhibition at 1 mg/ml after 32 hrs by agar-well diffusion method; assay type: functional; details: read-out: IZ
Pseudomonas aeruginosa [26] = assay: Antibacterial activity against Pseudomonas aeruginosa assessed as zone of inhibition at 1 mg/ml after 32 hrs by agar-well diffusion method; assay type: functional; details: read-out: IZ
Escherichia coli [27] = assay: Antibacterial activity against Escherichia coli assessed as zone of inhibition at 1 mg/ml after 32 hrs by agar-well diffusion method; assay type: functional; details: read-out: IZ
Staphylococcus aureus [28] = assay: Antibacterial activity against Staphylococcus aureus ATCC 25923 after 24 hrs; assay type: functional; details: ATCC 25923, 24 h
Bacillus spizizenii [29] = assay: Antibacterial activity against Bacillus subtilis ATCC 6633 after 24 hrs; assay type: functional; details: ATCC 6633, 24 h
Escherichia coli [30] = assay: Antibacterial activity against Escherichia coli ATCC 25922 after 24 hrs; assay type: functional; details: ATCC 25922, 24 h

Cc1ccc(Oc2nc3ccc(C)cc3cc2/C=N\NC(=O)c2cc(-c3cc4ccccc4o3)n(-c3ccccc3)n2)cc1
zone of inhibition at 250 µg/mL (Staphylococcus aureus [1]): 12 to 14 mm
zone of inhibition at 250 µg/mL (Escherichia coli [2]): 12 to 14 mm

CN[C@@H]1[C@H](O[C@H]2[C@H](O[C@H]3[C@H](O)[C@@H](O)[C@H](N=C(N)N)[C@@H](O)[C@@H]3N=C(N)N)O[C@@H](C)[C@]2(O)C=O)O[C@@H](CO)[C@H](O)[C@H]1O [STREPTOMYCIN]
MIC [3]: 6.25 µg/mL (≈ 10.7 µM)
MIC (Bacillus subtilis [4]): 17.2 to 19.4 µg/mL (≈ 29.7 to 33.3 µM)
MIC (Escherichia coli [5]): 17.2 to 19.4 µg/mL (≈ 29.7 to 33.3 µM)
MIC (Pseudomonas aeruginosa [6]): 17.2 to 19.4 µg/mL (≈ 29.7 to 33.3 µM)

O=C1Nc2ccc(Cl)cc2/C1=N/NC(=O)c1cc2ccccc2o1
IC50 [7]: 50 to 200 µM

COc1cc(OC)c(-c2cc3cc(C(=O)NN)cc(OC)c3o2)c(OC)c1
zone of inhibition at 25 µg/mL (Staphylococcus aureus [8]): 21 to 27 mm
zone of inhibition at 25 µg/mL (Streptococcus pyogenes [9]): 21 to 27 mm
zone of inhibition at 25 µg/mL (Escherichia coli [10]): 21 to 27 mm
zone of inhibition at 25 µg/mL (Pseudomonas aeruginosa [11]): 21 to 27 mm

Cc1cc(NS(C)(=O)=O)c2oc(COC(=O)NCc3ccccc3)cc2c1
zone of inhibition at 100 µg/mL (Staphylococcus aureus [12]): 19 to 28 mm
zone of inhibition at 100 µg/mL (Streptococcus pyogenes [13]): 19 to 28 mm
zone of inhibition at 100 µg/mL (Escherichia coli [14]): 19 to 28 mm
zone of inhibition at 100 µg/mL (Pseudomonas aeruginosa [15]): 19 to 28 mm

COc1ccc(-c2nn(-c3ccccc3)cc2/C=C/c2oc3c4c(ccc3c2C(=O)c2ccc(Br)cc2)OCC=C4)cc1OC
MIC (Bacillus spizizenii [16]): 1.6 to 3.1 µg/mL (≈ 2.43 to 4.7 µM)
MIC (Staphylococcus aureus [17]): 1.6 to 3.1 µg/mL (≈ 2.43 to 4.7 µM)
MIC (Escherichia coli [18]): 1.6 to 3.1 µg/mL (≈ 2.43 to 4.7 µM)
MIC (Proteus vulgaris [19]): 1.6 to 3.1 µg/mL (≈ 2.43 to 4.7 µM)

O=C1Nc2ccc([N+](=O)[O-])cc2/C1=N/NC(=O)c1cc2ccccc2o1
IC50 [7]: 50 to 200 µM

CCOc1ccc(-c2nn(-c3ccccc3)cc2/C=C/c2oc3c4c(ccc3c2C(=O)c2ccc(Br)cc2)OCC=C4)cc1
MIC (Bacillus spizizenii [16]): 6.3 to 25 µg/mL (≈ 9.79 to 38.8 µM)
MIC (Staphylococcus aureus [17]): 6.3 to 25 µg/mL (≈ 9.79 to 38.8 µM)
MIC (Escherichia coli [18]): 6.3 to 25 µg/mL (≈ 9.79 to 38.8 µM)
MIC (Proteus vulgaris [19]): 6.3 to 25 µg/mL (≈ 9.79 to 38.8 µM)

CC(=O)Nc1cc(C)cc2cc(COC(=O)NCc3ccccc3)oc12
zone of inhibition at 100 µg/mL (Staphylococcus aureus [12]): 11 to 28 mm
zone of inhibition at 100 µg/mL (Streptococcus pyogenes [13]): 11 to 28 mm
zone of inhibition at 100 µg/mL (Escherichia coli [14]): 11 to 28 mm
zone of inhibition at 100 µg/mL (Pseudomonas aeruginosa [15]): 11 to 28 mm

O=C1/C(=C\c2cn(-c3ccccc3)nc2-c2cccs2)Oc2cc(Cl)ccc21
zone of inhibition at 50 µg/mL (Staphylococcus aureus [20]): 13 to 33 mm
zone of inhibition at 50 µg/mL (Bacillus subtilis [21]): 13 to 33 mm
zone of inhibition at 50 µg/mL (Escherichia coli [22]): 13 to 33 mm
zone of inhibition at 50 µg/mL (Pseudomonas aeruginosa [23]): 13 to 33 mm

CCn1cc(C(=O)O)c(=O)c2cc(F)c(N3CCNCC3)cc21 [NORFLOXACIN]
MIC (Proteus vulgaris [24]): 62.5 µg/mL (≈ 196 µM)
zone of inhibition at 25 µg/mL (Staphylococcus aureus [8]): 19 to 25 mm
zone of inhibition at 25 µg/mL (Streptococcus pyogenes [9]): 19 to 25 mm
zone of inhibition at 25 µg/mL (Escherichia coli [10]): 19 to 25 mm
zone of inhibition at 25 µg/mL (Pseudomonas aeruginosa [11]): 19 to 25 mm

COc1ccc(S(=O)(=O)Nc2cc(C)cc3cc(COC(=O)NCc4ccccc4)oc23)cc1
zone of inhibition at 100 µg/mL (Staphylococcus aureus [12]): 19 to 28 mm
zone of inhibition at 100 µg/mL (Streptococcus pyogenes [13]): 19 to 28 mm
zone of inhibition at 100 µg/mL (Escherichia coli [14]): 19 to 28 mm
zone of inhibition at 100 µg/mL (Pseudomonas aeruginosa [15]): 19 to 28 mm

O=C1Nc2ccc(F)cc2/C1=N/NC(=O)c1cc2cc([N+](=O)[O-])ccc2o1
IC50 [7]: 50 to 200 µM

CC1(C)S[C@@H]2[C@H](NC(=O)[C@H](N)c3ccccc3)C(=O)N2[C@H]1C(=O)O [AMPICILLIN]
zone of inhibition at 50 µg/mL (Staphylococcus aureus [20]): 10 to 30 mm
zone of inhibition at 50 µg/mL (Bacillus subtilis [21]): 10 to 30 mm
zone of inhibition at 50 µg/mL (Escherichia coli [22]): 10 to 30 mm
zone of inhibition at 50 µg/mL (Pseudomonas aeruginosa [23]): 10 to 30 mm
zone of inhibition at 1000 µg/mL (Staphylococcus aureus [25]): 20 to 28 mm
zone of inhibition at 1000 µg/mL (Klebsiella pneumoniae): 20 to 28 mm
zone of inhibition at 1000 µg/mL (Pseudomonas aeruginosa [26]): 20 to 28 mm
zone of inhibition at 1000 µg/mL (Escherichia coli [27]): 20 to 28 mm
MIC (Staphylococcus aureus [28]): 0.48 µg/mL (≈ 1.37 µM)
MIC (Bacillus spizizenii [29]): 3.9 µg/mL (≈ 11.2 µM)
MIC (Escherichia coli [30]): 3.9 µg/mL (≈ 11.2 µM)
MIC (Proteus vulgaris [24]): 3.9 µg/mL (≈ 11.2 µM)

Cc1cc(NS(=O)(=O)c2ccccc2)c2oc(COC(=O)NCc3ccccc3)cc2c1
zone of inhibition at 100 µg/mL (Staphylococcus aureus [12]): 11 to 28 mm
zone of inhibition at 100 µg/mL (Streptococcus pyogenes [13]): 11 to 28 mm
zone of inhibition at 100 µg/mL (Escherichia coli [14]): 11 to 28 mm
zone of inhibition at 100 µg/mL (Pseudomonas aeruginosa [15]): 11 to 28 mm

Cc1cc(NS(=O)(=O)c2cccs2)c2oc(COC(=O)NCc3ccccc3)cc2c1
zone of inhibition at 100 µg/mL (Staphylococcus aureus [12]): 11 to 28 mm
zone of inhibition at 100 µg/mL (Streptococcus pyogenes [13]): 11 to 28 mm
zone of inhibition at 100 µg/mL (Escherichia coli [14]): 11 to 28 mm
zone of inhibition at 100 µg/mL (Pseudomonas aeruginosa [15]): 11 to 28 mm

NC(=O)c1cnccn1 [PYRAZINAMIDE]
MIC [3]: 3.12 µg/mL (≈ 25.4 µM)
